From US12357596B2, “Compounds for prevention and treatment of obesity and related disorders” (ABREXA PHARMACEUTICALS, INC., priority 2019, dated 2025)

Assay: 28-day once-daily oral gavage toxicity study with 14-day recovery (body weight, food consumption, clinical and anatomic pathology)
Format: in vivo
Conditions: for Decrease of group mean food consumption compared to Group 1 controls: Days 21 to 28
Procedure: J147 or vehicle was administered once daily to Sprague-Dawley rats via oral gavage for 28 consecutive days at a daily dose of 0, 30, 100 or 300 mg/kg. J174 was prepared in a vehicle formulation comprising 5% ethanol, 5% DMSO and 90% corn oil (v/v/v). Certified rodent diet and water was available ad libitum. Groups 1-4 contained 10 animals/sex/group. Groups 1 (control) and 4 (high dose) also included an additional 5 animals/sex/group for use as recovery animals. The recovery animals were maintained on study for a 14-day postdosing recovery period. Animals in Groups 1-4 were monitored for morbidity and mortality, clinical signs, detailed clinical observations, body weight, food consumption, ophthalmologic parameters, neurobehavioral assessment consisting of a Functional Observational Battery (FOB) and a motor activity test, hematology, coagulation, serum chemistry, and urinalysis parameters. Postmortem assessment included necropsy, measurement of selected organ weights, and microscopic evaluation of a standard set of tissues. Plasma samples for bioanalysis were collected on Days 1 and 28 from satellite toxicokinetic animals in Groups 5 through 8. Animals in these groups were euthanized following the last blood sampling and carcasses were discarded without examination. The study protocol is shown below in Table 1.

[1] = Group 2F: female rats, 30 mg/kg/day
[2] = Group 2M: male rats, 30 mg/kg/day
[3] = Group 3F: female rats, 100 mg/kg/day
[4] = Group 3M: male rats, 100 mg/kg/day
[5] = Group 4F: female rats, 300 mg/kg/day
[6] = Group 4M: male rats, 300 mg/kg/day
[7] = female rats, 30 mg/kg/day, Day 7 → 14
[8] = female rats, 30 mg/kg/day, Day 14 → 21
[9] = female rats, 30 mg/kg/day, Day 21 → 28
[10] = female rats, 30 mg/kg/day, Day −1 → 7
[11] = female rats, 100 mg/kg/day, Day 7 → 14
[12] = female rats, 100 mg/kg/day, Day 14 → 21
[13] = female rats, 100 mg/kg/day, Day 21 → 28
[14] = female rats, 100 mg/kg/day, Day 28
[15] = female rats, 100 mg/kg/day, Day −1 → 7
[16] = female rats, 300 mg/kg/day, Day 7 → 14
[17] = female rats, 300 mg/kg/day, Day 14 → 21
[18] = female rats, 300 mg/kg/day, Day 21 → 28
[19] = female rats, 300 mg/kg/day, Day 28
[20] = female rats, 300 mg/kg/day, Day −1 → 7
[21] = male rats, 30 mg/kg/day, Day 7 → 14

## COc1cccc(/C=N/N(C(=O)C(F)(F)F)c2ccc(C)cc2C)c1 [J147]
[1]
  Terminal Body Weight % Diff from Control: −2.4%
  Terminal Body Weight (mean): 238.10 g
[2]
  Terminal Body Weight % Diff from Control: +1.4%
  Terminal Body Weight (mean): 443.50 g
[3]
  Terminal Body Weight % Diff from Control: −7.6%
  Terminal Body Weight (mean): 225.43 g
[4]
  Terminal Body Weight % Diff from Control: −5.69%
  Terminal Body Weight (mean): 412.50 g
[5]
  Terminal Body Weight % Diff from Control: −14.23%
  Terminal Body Weight (mean): 209.24 g
[6]
  Terminal Body Weight % Diff from Control: −17.91%
  Terminal Body Weight (mean): 359.05 g
Both sexes, Sprague-Dawley, rat, in vivo, po
  NOAEL at 28 days: 30 mg/kg/day
Female rats, 30 mg/kg/day
  Increase in platelet counts: 3.8%
Female rats, 30 mg/kg/day, Day 7
  Mean Bodyweight: 220.64 g
[7]
  Food Mean Consumption: 14.89 g/animal/day
  Mean Bodyweight Gain: 13.06 g
Female rats, 30 mg/kg/day, Day 14
  Mean Bodyweight: 233.70 g
[8]
  Food Mean Consumption: 15.47 g/animal/day
  Mean Bodyweight Gain: 9.45 g
Female rats, 30 mg/kg/day, Day 21
  Mean Bodyweight: 243.15 g
[9]
  Food Mean Consumption: 15.12 g/animal/day
  Mean Bodyweight Gain: 5.08 g
Female rats, 30 mg/kg/day, Day 28
  Mean Bodyweight: 248.23 g
Female rats, 30 mg/kg/day, Day −1 (pre-dose)
  Mean Bodyweight: 203.02 g
[10]
  Food Mean Consumption: 15.49 g/animal/day
  Mean Bodyweight Gain: 17.62 g
Female rats, 30 mg/kg/day, Day −1 → 28
  Mean Bodyweight Gain: 45.21 g
Female rats, 30 mg/kg/day, Day −3 (pre-dose)
  Mean Bodyweight: 200.70 g
Female rats, 100 mg/kg/day, Day 7
  Mean Bodyweight: 215.78 g
[11]
  Food Mean Consumption: 13.85 d^4 g/animal/day
  Mean Bodyweight Gain: 9.99 d^3 g
Female rats, 100 mg/kg/day, Day 14
  Mean Bodyweight: 225.77 d^2 g
[12]
  Food Mean Consumption: 14.70 g/animal/day
  Mean Bodyweight Gain: 7.02 g
Female rats, 100 mg/kg/day, Day 21
  Mean Bodyweight: 232.79 d^2 g
[13]
  Food Mean Consumption: 13.98 g/animal/day
  Mean Bodyweight Gain: 1.60 g
[14]
  Decrease of group mean body weight compared to Group 1 controls: 6.9%
  Mean Bodyweight: 234.39 g
Female rats, 100 mg/kg/day, Day −1 (pre-dose)
  Mean Bodyweight: 206.05 g
[15]
  Food Mean Consumption: 14.33 dd^3 g/animal/day
  Mean Bodyweight Gain: 9.73 d^3 g
Female rats, 100 mg/kg/day, Day −1 → 28
  Mean Bodyweight Gain: 28.34 dd^4 g
Female rats, 100 mg/kg/day, Day −3 (pre-dose)
  Mean Bodyweight: 201.20 g
Female rats, 100 mg/kg/day
  Decrease of group mean food consumption compared to Group 1 controls: 8.6%
Female rats, 300 mg/kg/day for 28 days, Day 28 → 35 (recovery)
  Food Mean Consumption: 22.30 d^4 g/animal/day
Female rats, 300 mg/kg/day for 28 days, Day 28 → 42 (recovery)
  Mean Bodyweight Gain: 32.82 g
Female rats, 300 mg/kg/day for 28 days, Day 35 (recovery)
  Mean Bodyweight: 249.62 g
Female rats, 300 mg/kg/day for 28 days, Day 35 → 42 (recovery)
  Food Mean Consumption: 20.22 g/animal/day
Female rats, 300 mg/kg/day for 28 days, Day 42 (recovery)
  Mean Bodyweight: 258.24 g
Female rats, 300 mg/kg/day, Day 7
  Mean Bodyweight: 214.74 g
[16]
  Food Mean Consumption: 13.81 dd^3 g/animal/day
  Mean Bodyweight Gain: 8.25 dd^4 g
Female rats, 300 mg/kg/day, Day 14
  Mean Bodyweight: 222.99 dd^3 g
[17]
  Food Mean Consumption: 14.73 g/animal/day
  Mean Bodyweight Gain: 5.03 dd^4 g
Female rats, 300 mg/kg/day, Day 21
  Mean Bodyweight: 228.03 dd^3 g
[18]
  Food Mean Consumption: 12.91 d^4 g/animal/day
  Mean Bodyweight Gain: −7.49 d^3 g
[19]
  Decrease of group mean body weight compared to Group 1 controls: 12.4%
  Mean Bodyweight: 220.53 dd^3 g
Female rats, 300 mg/kg/day, Day −1 (pre-dose)
  Mean Bodyweight: 207.85 g
[20]
  Food Mean Consumption: 13.75 dd^3 g/animal/day
  Mean Bodyweight Gain: 6.89 dd^4 g
Female rats, 300 mg/kg/day, Day −1 → 28
  Mean Bodyweight Gain: 12.68 dd^4 g
Female rats, 300 mg/kg/day, Day −3 (pre-dose)
  Mean Bodyweight: 200.70 g
Female rats, 300 mg/kg/day
  Decrease of group mean food consumption compared to Group 1 controls: 15.6%
Female rats, Group 2 (30 mg/kg/day)
  Group mean weight gain from Day −1 to 28: 45 grams
Female rats, Group 3 (100 mg/kg/day)
  Group mean weight gain from Day −1 to 28: 28 grams
Female rats, Group 4 (300 mg/kg/day)
  Group mean weight gain from Day −1 to 28: 13 grams
Male rats, 30 mg/kg/day, Day 7
  Mean Bodyweight: 338.91 g
[21]
  Mean Bodyweight Gain: 52.38 g
  Mean Food Consumption: 24.85
Male rats, 30 mg/kg/day, Day 14
  Mean Bodyweight: 391.29 g
